Values after ≈ are worked out from the molar mass of the structure shown. Active and inactive are the calls of the source. The calls are words filed in the database; no cut-off is given here.
Columns and labels:
[1] = target: T1, Cholinesterase (Homo sapiens, UniProt P06276); assay: Inhibition of BchE in human plasma incubated for 30 mins using butyrylthiocholine substrate at 37 degC by DTNB dye based spectrophotometry
[2] = test system: Enterococcus faecalis; assay: Antimicrobial activity against Enterococcus faecalis ATCC 29212 incubated for 24 hrs by microtiter plate dilution method; type: functional
[3] = Antioxidant activity assessed as ferric-reducing antioxidant power after 20 mins at 50 degC by UV spectrophotometry; type: physicochemical
[4] = target: T1, Cholinesterase; assay: Inhibition of BchE in human plasma at 1 mg/ml incubated for 30 mins using butyrylthiocholine substrate at 37 degC by DTNB dye based spectrophotometry
[5] = test system: Pseudomonas aeruginosa; assay: Antimicrobial activity against Pseudomonas aeruginosa ATCC 27853 incubated for 24 hrs by microtiter plate dilution method; type: functional
[6] = test system: Escherichia coli; assay: Antimicrobial activity against Escherichia coli ATCC 25922 incubated for 24 hrs by microtiter plate dilution method; type: functional
[7] = Antioxidant activity assessed as ABTS radical scavenging activity incubated for 6 mins; type: physicochemical
[8] = Antioxidant activity assessed as DPPH radical scavenging activity incubated for 30 mins by UV absorption spectrometry; type: physicochemical
[9] = Antioxidant activity assessed as catalase activity by measuring hydrogen peroxide disappearance per mg protein measured for 1 min at 25 degC; type: physicochemical
[10] = test system: Staphylococcus aureus; assay: Antimicrobial activity against Staphylococcus aureus ATCC 25923 incubated for 24 hrs by microtiter plate dilution method; type: functional

T1 sequence (P06276 whole entry): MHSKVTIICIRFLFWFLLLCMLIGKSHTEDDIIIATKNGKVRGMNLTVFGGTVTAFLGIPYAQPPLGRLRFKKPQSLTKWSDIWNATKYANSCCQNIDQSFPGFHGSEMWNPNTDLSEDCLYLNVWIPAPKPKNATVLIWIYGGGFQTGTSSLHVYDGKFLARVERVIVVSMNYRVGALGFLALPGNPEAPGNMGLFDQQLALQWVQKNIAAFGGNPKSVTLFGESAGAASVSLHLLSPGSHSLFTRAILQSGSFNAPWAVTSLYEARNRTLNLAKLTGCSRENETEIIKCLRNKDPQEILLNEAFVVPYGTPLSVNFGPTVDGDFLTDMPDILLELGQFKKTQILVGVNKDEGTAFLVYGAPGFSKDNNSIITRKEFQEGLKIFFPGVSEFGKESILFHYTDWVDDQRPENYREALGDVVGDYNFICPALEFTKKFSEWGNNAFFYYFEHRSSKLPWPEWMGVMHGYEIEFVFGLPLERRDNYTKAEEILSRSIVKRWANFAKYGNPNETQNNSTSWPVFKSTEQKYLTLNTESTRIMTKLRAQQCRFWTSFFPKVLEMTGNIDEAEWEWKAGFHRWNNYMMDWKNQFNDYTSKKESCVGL

| Compound | IC50 ([1]; read-out: IC50 (converted)) [µM] | MIC ([2]; ATCC 29212, 24 h) [µg/mL] | IC50 [3] | inhibition [4] [%] | MIC ([5]; ATCC 27853, 24 h) [µg/mL] | MIC ([6]; ATCC 25922, 24 h) [µg/mL] | IC50 [7] | IC50 [8] | Activity [9] | MIC ([10]; ATCC 25923, 24 h) [µg/mL] | IC50 [1] | MIC [2] | MIC [5] | MIC [6] | MIC [10] |
| --- | --- | --- | --- | --- | --- | --- | --- | --- | --- | --- | --- | --- | --- | --- | --- |
| CO[C@]1(O[C@@H](CCC(C)(C)O)[C@](C)(O)[C@H]2CC[C@@]3(O)C4=CC(=O)[C@@H]5C[C@@H](O)[C@@H](O)C[C@]5(C)[C@H]4CC[C@]23C)COC[C@@H](O)[C@@H](O)[C@H]1O | 837 | 125 (≈ 190 µM) | 288.36 µg/mL (≈ 439 µM) | 68.3 | 125 (≈ 190 µM) | 62 (≈ 94.4 µM) | 111.24 µg/mL (≈ 169 µM) | 180.26 µg/mL (≈ 274 µM) | 159.62 µmol/min | 125 (≈ 190 µM) |  |  |  |  |  |
| Cc1c(C)c2c(c(C)c1O)CCC(C)(C(=O)O)O2 (configuration not stated) [TROLOX] |  |  | 47.32 µg/mL (≈ 189 µM) |  |  |  | 2.02 µg/mL (≈ 8.07 µM) | 14.56 µg/mL (≈ 58.2 µM) |  |  |  |  |  |  |  |
| CN[C@H](CC(C)C)C(=O)N[C@H]1C(=O)N[C@@H](CC(N)=O)C(=O)N[C@H]2C(=O)N[C@H]3C(=O)N[C@H](C(=O)N[C@H](C(=O)O)c4cc(O)cc(O)c4-c4cc3ccc4O)[C@H](O)c3ccc(c(Cl)c3)Oc3cc2cc(c3O[C@@H]2O[C@H](CO)[C@@H](O)[C@H](O)[C@H]2O[C@H]2C[C@](C)(N)[C@H](O)[C@H](C)O2)Oc2ccc(cc2Cl)[C@H]1O [VANCOMYCIN] |  | 62 (≈ 42.8 µM) |  |  | 1 (≈ 0.69 µM) | 1 (≈ 0.69 µM) |  |  |  | 3 (≈ 2.07 µM) |  |  |  |  |  |
| CC(C)(O)CC[C@@H](O)[C@](C)(O)[C@H]1CC[C@@]2(O)C3=CC(=O)[C@@H]4C[C@@H](O)[C@@H](O)C[C@]4(C)[C@H]3CC[C@]12C [20-HYDROXYECDYSONE] | 1050 | 125 (≈ 260 µM) | 262.45 µg/mL (≈ 546 µM) | 71.2 | 62 (≈ 129 µM) | 125 (≈ 260 µM) | 98.74 µg/mL (≈ 205 µM) | 155.82 µg/mL (≈ 324 µM) | 112.35 µmol/min | 125 (≈ 260 µM) |  |  |  |  |  |
| O=C1O[C@H]([C@@H](O)CO)C(O)=C1O [ASCORBIC ACID] |  |  |  |  |  |  |  |  | 757.575 µmol/min |  |  |  |  |  |  |
| CCCCOC1(O)COC[C@@H](O)[C@@H](O)[C@H]1O (some centres not stated) |  |  | Not Active |  |  |  | Not Active | Not Active | Not Active |  | Not Active | inactive | inactive | inactive | inactive |
